Read-outs that look alike come from different tables or passages of the source. Peptide text beside a SMILES is read from it. * marks the point of attachment. X1 = CCCCCCCCCCCCCCCC(=O)OC[C@H](COP(=O)([O-])OCC[N+](C)(C)C)O*
Columns and labels:
membrane fusion = details: ref Epand, 2003; cited from earlier work
[1] = target: bee-venom phospholipase A2 (Apis mellifera, UniProt P00630); type: biochemical
Sequence of bee-venom phospholipase A2 (P00630 34-167 limits assumed): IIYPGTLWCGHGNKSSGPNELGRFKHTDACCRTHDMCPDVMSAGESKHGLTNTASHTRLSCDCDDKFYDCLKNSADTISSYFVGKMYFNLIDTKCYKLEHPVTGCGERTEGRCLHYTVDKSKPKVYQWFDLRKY

carbobenzoxy-D-Phe-Phe-Gly [compound 5]
antiviral action by inhibition of membrane fusion (membrane fusion): blocking viral infection by inhibiting membrane fusion

CCCCCCCCCCCCCCCC(=O)OC[C@H](COP(=O)([O-])OCC[N+](C)(C)C)OC(=O)CCCCCCCCCCCCCCC [DPPC, dipalmitoyl phosphatidylcholine, reference compound]
time to complete hydrolysis by PLA2 [1]: 10 min | time to complete hydrolysis by PLA2 ([1]; 40°C): ≤ 90 min | time to complete hydrolysis by PLA2 ([1]; pH 8.5): 10 min

CCCCCCCCCCCCCCCC(=O)OC[C@H](COP(=O)([O-])OCC[N+](C)(C)C)OC(=O)CNC(=O)CNC(=O)[C@@H]1CCCN1C(=O)CN.Cl [compound 10, 1-Palmitoyl-2-(gly-pro-gly-gly)-sn-glycero-3-phosphocholine hydrochloride] (H-GPGG-X1)
hydrolysis by bee-venom PLA2 (result in words) [1]: completely hydrolyzed | time to complete hydrolysis by PLA2 ([1]; pH 8.5): ≤ 90 min

CCCCCCCCCCCCCCCC(=O)OC[C@H](COP(=O)([O-])OCC[N+](C)(C)C)OC(=O)CNC(=O)OC(C)(C)C [compound 14, 1-palmitoyl-2-(N-BOC-glycyl)-sn-glycero-3-phosphocholine]
hydrolysis by bee-venom PLA2 (result in words) [1]: readily hydrolyzed | time to complete hydrolysis by PLA2 [1]: 20 min

CCCCCCCCCCCCCCCC(=O)OC[C@H](COP(=O)([O-])OCC[N+](C)(C)C)OC(=O)CNC(=O)[C@H](Cc1ccccc1)NC(=O)[C@@H](Cc1ccccc1)NC(=O)OCc1ccccc1 [compound 13, 1-Palmitoyl-2-(CBZ-D-phe-phe-gly)-sn-glycero-3-phosphocholine]
hydrolysis by bee-venom PLA2 (result in words) [1]: completely hydrolyzed | time to complete hydrolysis by PLA2 ([1]; pH 8.5): ≤ 90 min

— paper PMC4183669 (Chemistry and physics of lipids, 2014)
